Assay results: patent EP4656630A1, “NOVEL COMPOUND AS LYSYL-TRNA SYNTHETASE 1 INHIBITOR, AND USE THEREOF” (Zymedi Co., Ltd., priority 2023, dated 2024)

Experiments:
Raw 264.7 cells = experiment: LN (Laminin 421)-induced immune cell migration, Transwell; assay type: cell-based; conditions: Mus musculus, RAW264.7; for inhibition at 3 µM: 3 µM compound, LN (Laminin 421 1 µg/ml), 24 hours, % inhibition compared to control group, read-out: Migration inhibitor % (3uM); for EC50: LN-induced cell migration, read-out: EC50 for cell migration inhibition induced by LN
How it was run: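 Raw 264.7 cells (1 x 10^5/well) seeded in upper chamber of gelatin-coated 5 µm Transwell with compound at 3 µM. Serum-free DMEM with Laminin 421 (1 µg/ml) in lower chamber. After 24 h, migrated cells fixed, hematoxylin-stained and counted by microscopy; expressed as % inhibition versus control.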

KARS1 and 37LR = target: T1, KARS1 and 37LR (Homo sapiens, UniProt Q15046); experiment: Cell-free ELISA of KARS1 and 37LR (laminin receptor) binding; conditions: 10 µM compound, 1 hour, plate coated with KARS1 (1-207aa), LRF
T1 construct: KARS1 (1-207aa)
Description: Next, based on the mechanism of action, a cell-free ELISA analysis was conducted to select compounds with high inhibitory activity on the binding of KARS1 and LR (laminin receptor).

Raw264.7 cells = experiment: KARS1-induced trans-migration assay; assay type: cell-based, mouse; conditions: Mus musculus, RAW264.7; for inhibition at 1 µM: 1 µM compound, read-out: KARS1-induced Raw264.7 cell migration (% inhibition, 1uM); for EC50: KARS1-induced cell migration, 0.1~4 µM
How it was run: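 Mouse Raw264.7 macrophage trans-migration induced by externally added KARS1 protein in place of laminin. Candidates with high inhibition at 1 µM were then tested at 0.1~4 µM.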

[1] = Microsomal metabolic stability, rat; assay type: in vitro ADME
Description: (§1) Metabolic stability (MS) evaluation was conducted for the selected compounds by measuring in vitro stability in two species, rat and human, according to the microsomal stability measurement method. As a result, it was identified that MS varied depending on the transformation of parts A, B, and C.

[2] = Microsomal metabolic stability, human; assay type: in vitro ADME
Description: as §1

[3] = S9 metabolic stability, mouse; assay type: in vitro ADME; conditions: for Metabolic stability (% remaining at each time) Mouse (min) 30: 30 min; for Metabolic stability (% remaining at each time) Mouse (min) 45: 45 min; for Metabolic stability (% remaining at each time) Mouse (min) 60: 60 min
Description: (§2) Among these, secondary MS measurements were conducted for Compound 25 (C0047), Compound 43 (C0216), and C0001 using the S9 method. This test measured the remaining % at 30, 45, and 60 minutes for four species: mouse, rat, dog, and human.

[4] = S9 metabolic stability, rat; assay type: in vitro ADME; conditions: for Metabolic stability (% remaining at each time) Rat (min) 30: 30 min; for Metabolic stability (% remaining at each time) Rat (min) 45: 45 min; for Metabolic stability (% remaining at each time) Rat (min) 60: 60 min
Description: as §2

[5] = S9 metabolic stability, dog; assay type: in vitro ADME; conditions: for Metabolic stability (% remaining at each time) Dog (min) 30: 30 min; for Metabolic stability (% remaining at each time) Dog (min) 45: 45 min; for Metabolic stability (% remaining at each time) Dog (min) 60: 60 min
Description: as §2

[6] = S9 metabolic stability, human; assay type: in vitro ADME; conditions: for Metabolic stability (% remaining at each time) Human (min) 30: 30 min; for Metabolic stability (% remaining at each time) Human (min) 45: 45 min; for Metabolic stability (% remaining at each time) Human (min) 60: 60 min
Description: as §2

[7] = Rat pharmacokinetics (po and iv) and bioavailability; assay type: in vivo; conditions: for Cmax / Tmax / half-life / AUC: in vivo
Description: For this purpose, formulations suitable for peroral administration (po) and intravenous injection (iv) for each compound were first selected to ensure stable PK progression.
The formulation was selected under the condition of maintaining a clear solution for more than 1 hour at 10 and 30 mpk doses based on po, and the iv formulation was modified when iv use was not possible based on po (Table 8).
To confirm the oral administration potential of the selected compounds, 10 mpk rat po PK was conducted. The PK profile and key indicators after administering 10 mpk to five compounds, C0001, 25, 41, 42, and 43, are shown in Figure 3 and Table 9.
Based on the previous 10 mpk po rat PK results, 30 mpk po rat PK was conducted for four compounds, C0001, 25, 41, and 43, to confirm changes in the blood PK profile of the substances with increasing doses.
For these compounds, 2 mpk iv rat PK was conducted to calculate bioavailability (BA) (Table 11).

Organ distribution = assay type: in vivo; parameters: Organ distribution Plasma (ng/ml): concentration or dose not given beside the values
[8] = po, 10 mg/kg, 10 mpk (Table 11)
[9] = po, 30 mg/kg, 30 mpk (Table 11)

T1 sequence (Q15046 1-207): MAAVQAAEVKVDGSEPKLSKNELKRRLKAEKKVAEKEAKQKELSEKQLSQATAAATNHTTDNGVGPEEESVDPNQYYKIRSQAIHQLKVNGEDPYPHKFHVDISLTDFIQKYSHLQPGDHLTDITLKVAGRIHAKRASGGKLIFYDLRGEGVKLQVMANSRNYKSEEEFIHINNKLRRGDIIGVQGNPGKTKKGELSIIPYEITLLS

Structure (SMILES): COc1ccc(CCN(Cc2ccc(C#CC(=O)O)cc2)c2nc3cccc(F)c3s2)cc1 [Compound C0001, reference compound]
- inhibition at 3 µM (Raw 264.7 cells): 41.9%
- EC50 (Raw 264.7 cells): 7.93 µM
- inhibition at 10 µM (KARS1 and 37LR): 64.5%
- inhibition at 1 µM (Raw264.7 cells): 68.7%
- EC50 (Raw264.7 cells): 0.75 µM
- Metabolic stability (% remaining at 30 min) Rat [1]: 50%
- Metabolic stability (% remaining at 30 min) Human [2]: 56%
- Metabolic stability (% remaining at each time) Mouse (min) 30 [3]: 67.1%
- Metabolic stability (% remaining at each time) Mouse (min) 45 [3]: 62.3%
- Metabolic stability (% remaining at each time) Mouse (min) 60 [3]: 49.6%
- Metabolic stability (% remaining at each time) Rat (min) 30 [4]: 79.6%
- Metabolic stability (% remaining at each time) Rat (min) 45 [4]: 76.6%
- Metabolic stability (% remaining at each time) Rat (min) 60 [4]: 83.1%
- Metabolic stability (% remaining at each time) Dog (min) 30 [5]: 80.7%
- Metabolic stability (% remaining at each time) Dog (min) 45 [5]: 85.6%
- Metabolic stability (% remaining at each time) Dog (min) 60 [5]: 75.9%
- Metabolic stability (% remaining at each time) Human (min) 30 [6]: 59.1%
- Metabolic stability (% remaining at each time) Human (min) 45 [6]: 50.2%
- Metabolic stability (% remaining at each time) Human (min) 60 [6]: 46.2%
- Cmax ([7]; 10 mg/kg, po, 10 mpk): 2020 ng/mL
- Tmax ([7]; 10 mg/kg, po, 10 mpk): 0.5 h
- half-life ([7]; 10 mg/kg, po, 10 mpk): 1.83 h
- Cmax ([7]; 30 mg/kg, po, 30 mpk): 4720 ng/mL
- Tmax ([7]; 30 mg/kg, po, 30 mpk): 2 h
- half-life ([7]; 30 mg/kg, po, 30 mpk): 2.67 h
- AUC ([7]; iv, 2 mg/kg, 2 mpk): 3440 ng·h/mL
- AUC ([7]; po, 10 mg/kg, 10 mpk): > 5000 ng·h/mL
- AUC [7, 8]: 5830 ng·h/mL
- AUC ([7]; po, 30 mg/kg, 30 mpk): 25600 ng·h/mL
- AUC [7, 9]: 25600 ng·h/mL
- BA (%) ([7]; po, 10 mpk against iv 2 mpk): 33.9%
- BA (%) ([7]; po, 30 mpk against iv 2 mpk): 49.6%
- Organ distribution (ratio per plasma) Brain (Organ distribution; 0.5 h): 0.02
- Organ distribution (ratio per plasma) Brain (Organ distribution; 6.0 h): 0.01
- Organ distribution (ratio per plasma) Heart (Organ distribution; 0.5 h): 0.06
- Organ distribution (ratio per plasma) Heart (Organ distribution; 6.0 h): 0.03
- Organ distribution (ratio per plasma) Kidney (Organ distribution; 0.5 h): 0.01 / 0.01
- Organ distribution (ratio per plasma) Kidney (Organ distribution; 6.0 h): 0.01 / 0.01
- Organ distribution (ratio per plasma) Liver (Organ distribution; 0.5 h): 19.1 / 19.1
- Organ distribution (ratio per plasma) Liver (Organ distribution; 6.0 h): 19.1 / 19.1
- Organ distribution (ratio per plasma) Lung (Organ distribution; 0.5 h): 0.08
- Organ distribution (ratio per plasma) Lung (Organ distribution; 6.0 h): 0.06
- Organ distribution Plasma (ng/ml) (Organ distribution; 0.5 h): 3,145 ng/ml
- Organ distribution Plasma (ng/ml) (Organ distribution; 6.0 h): 1,769 ng/ml

Structure (SMILES): COc1ccc(CCN(Cc2ccc(N3CC[C@H](C(=O)O)C3)cc2)c2nc3c(F)c(F)cc(F)c3s2)cc1 [Compound 43, (S)-1-(4-(((4-methoxyphenethyl)(4,5,7-trifluorobenzo[d]thiazol-2-yl)amino)methyl)phenyl)pyrrolidine-3-carboxylic acid]
- inhibition at 3 µM (Raw 264.7 cells): 31.1%
- EC50 (Raw 264.7 cells): 5.09 µM
- inhibition at 10 µM (KARS1 and 37LR): 67.1%
- inhibition at 1 µM (Raw264.7 cells): 98.4%
- EC50 (Raw264.7 cells): 0.64 µM
- Metabolic stability (% remaining at 30 min) Rat [1]: 80%
- Metabolic stability (% remaining at 30 min) Human [2]: 85%
- Metabolic stability (% remaining at each time) Mouse (min) 30 [3]: 79.8%
- Metabolic stability (% remaining at each time) Mouse (min) 45 [3]: 77.7%
- Metabolic stability (% remaining at each time) Mouse (min) 60 [3]: 73.2%
- Metabolic stability (% remaining at each time) Rat (min) 30 [4]: 99.2%
- Metabolic stability (% remaining at each time) Rat (min) 45 [4]: 81.6%
- Metabolic stability (% remaining at each time) Rat (min) 60 [4]: 88.0%
- Metabolic stability (% remaining at each time) Dog (min) 30 [5]: 110.9%
- Metabolic stability (% remaining at each time) Dog (min) 45 [5]: 117.3%
- Metabolic stability (% remaining at each time) Dog (min) 60 [5]: 100.6%
- Metabolic stability (% remaining at each time) Human (min) 30 [6]: 87.3%
- Metabolic stability (% remaining at each time) Human (min) 45 [6]: 80.7%
- Metabolic stability (% remaining at each time) Human (min) 60 [6]: 92.4%
- Cmax ([7]; 10 mg/kg, po, 10 mpk): 3320 ng/mL
- Tmax ([7]; 10 mg/kg, po, 10 mpk): 1.33 h
- half-life ([7]; 10 mg/kg, po, 10 mpk): 0.95 h
- Cmax ([7]; 30 mg/kg, po, 30 mpk): 12800 ng/mL
- Tmax ([7]; 30 mg/kg, po, 30 mpk): 1.67 h
- half-life ([7]; 30 mg/kg, po, 30 mpk): 1 h
- AUC ([7]; iv, 2 mg/kg, 2 mpk): 2690 ng·h/mL
- AUC ([7]; po, 10 mg/kg, 10 mpk): > 5000 ng·h/mL
- AUC [7, 8]: 9710 ng·h/mL
- AUC ([7]; po, 30 mg/kg, 30 mpk): 55300 ng·h/mL
- AUC [7, 9]: 55300 ng·h/mL
- BA (%) ([7]; po, 10 mpk against iv 2 mpk): 72.2%
- AUC (ng*h/ml) ([7]; po, 10 mpk, listed as 43 (C0216), 10 mg/kg): 9,711 ng*h/ml
- BA (%) ([7]; po, 30 mpk against iv 2 mpk): 137.0%
- AUC value increase at 30 mpk ([7]; po, 30 mpk compared with 10 mpk): 5.7 times
- Organ distribution (ratio per plasma) Brain (Organ distribution; 0.5 h): 0.09
- Organ distribution (ratio per plasma) Brain (Organ distribution; 6.0 h): 0.92
- Organ distribution (ratio per plasma) Heart (Organ distribution; 0.5 h): 0.42
- Organ distribution (ratio per plasma) Heart (Organ distribution; 6.0 h): 0.35
- Organ distribution (ratio per plasma) Kidney (Organ distribution; 0.5 h): 0.61
- Organ distribution (ratio per plasma) Kidney (Organ distribution; 6.0 h): 1.89
- Organ distribution (ratio per plasma) Liver (Organ distribution; 0.5 h): 1.70
- Organ distribution (ratio per plasma) Liver (Organ distribution; 6.0 h): 3.56
- Organ distribution (ratio per plasma) Lung (Organ distribution; 0.5 h): 4.30
- Organ distribution (ratio per plasma) Lung (Organ distribution; 6.0 h): 0.55
- Organ distribution Plasma (ng/ml) (Organ distribution; 0.5 h): 19,420 ng/ml
- Organ distribution Plasma (ng/ml) (Organ distribution; 6.0 h): 5,366 ng/ml
